Source: patent US12077503B2, “Substituted cyclic amides and their use as herbicides” (FMC CORPORATION, priority 2015, dated 2024)

Legend:
Assay type in all cases: in vivo
[1] = tested on: barnyardgrass (Echinochloa crus-galli); assay: Test G Pre-Emergence Protocol; settings: Echinochloa crus-galli, pre-emergence, 312 h, evaluated after 13 days; for pest or weed control at 15.625 g/ha: 15.625 g ai/ha, read-out: Barnyard grass damage rating (100=total damage to plant; 0=no damage to plant); for pest or weed control at 62.5 g/ha: 62.5 g ai/ha, 100=total damage to plant, 0=no damage to plant, read-out: plant damage rating, Barnyardgrass; for pest or weed control at 250 g/ha: 250 g ai/ha, read-out: Barnyardgrass damage rating (100=total damage to plant; 0=no damage to plant)
Summary of the method: (§1)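 Herbicidal effect was rated 13 days post-application on a scale where 100 equals total damage. Spraying took place the day after sowing, using 15.625, 62.5 or 250 g/ha of compound in a 50:50 acetone/water solution with 0.5% Tween 20.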

[2] = tested on: corn (Zea mays); assay: Test G Pre-Emergence Protocol; settings: Zea mays, pre-emergence, 312 h, evaluated after 13 days; for plant injury at 15.625 g/ha: 15.625 g ai/ha; for plant injury at 15.625 g/ha / plant injury at 250 g/ha: read-out: Corn damage rating (100=total damage to plant; 0=no damage to plant); for plant injury at 62.5 g/ha: 62.5 g ai/ha, 100=total damage to plant, 0=no damage to plant, read-out: plant damage rating, Corn; for plant injury at 250 g/ha: 250 g ai/ha
Summary of the method: as §1

[3] = tested on: giant foxtail (Setaria faberi); assay: Test G Pre-Emergence Protocol; settings: Setaria faberi, pre-emergence, 312 h, evaluated after 13 days; for pest or weed control at 15.625 g/ha: 15.625 g ai/ha; for pest or weed control at 15.625 g/ha / pest or weed control at 250 g/ha: read-out: Foxtail, Giant damage rating (100=total damage to plant; 0=no damage to plant); for pest or weed control at 62.5 g/ha: 62.5 g ai/ha, 100=total damage to plant, 0=no damage to plant, read-out: plant damage rating, Foxtail, Giant; for pest or weed control at 250 g/ha: 250 g ai/ha
Summary of the method: as §1

[4] = tested on: ivy-leaved morning glory (Ipomoea hederacea); assay: Test G Pre-Emergence Protocol; settings: Ipomoea, pre-emergence, 312 h, evaluated after 13 days; for pest or weed control at 15.625 g/ha: 15.625 g ai/ha, read-out: Morning-glory, Ivy-leaved damage rating (100=total damage to plant; 0=no damage to plant); for pest or weed control at 62.5 g/ha: 62.5 g ai/ha, 100=total damage to plant, 0=no damage to plant, read-out: plant damage rating, Morningglory, Ivy-leaved; for pest or weed control at 250 g/ha: 250 g ai/ha, read-out: Morningglory, Ivy-leaved damage rating (100=total damage to plant; 0=no damage to plant)
Summary of the method: as §1

[5] = tested on: redroot pigweed (Amaranthus retroflexus); assay: Test G Pre-Emergence Protocol; settings: Amaranthus retroflexus, pre-emergence, 312 h, evaluated after 13 days; for pest or weed control at 15.625 g/ha: 15.625 g ai/ha; for pest or weed control at 15.625 g/ha / pest or weed control at 250 g/ha: read-out: Pigweed, Redroot damage rating (100=total damage to plant; 0=no damage to plant); for pest or weed control at 62.5 g/ha: 62.5 g ai/ha, 100=total damage to plant, 0=no damage to plant, read-out: plant damage rating, Pigweed, Redroot; for pest or weed control at 250 g/ha: 250 g ai/ha
Summary of the method: as §1

[6] = tested on: velvetleaf (Abutilon theophrasti); assay: Test G Pre-Emergence Protocol; settings: Abutilon theophrasti, pre-emergence, 312 h, evaluated after 13 days; for pest or weed control at 15.625 g/ha: 15.625 g ai/ha; for pest or weed control at 15.625 g/ha / pest or weed control at 250 g/ha: read-out: Velvetleaf damage rating (100=total damage to plant; 0=no damage to plant); for pest or weed control at 62.5 g/ha: 62.5 g ai/ha, 100=total damage to plant, 0=no damage to plant, read-out: plant damage rating, Velvetleaf; for pest or weed control at 250 g/ha: 250 g ai/ha
Summary of the method: as §1

[7] = tested on: barnyardgrass (Echinochloa crus-galli); assay: Test G Post-Emergence Protocol; settings: Echinochloa crus-galli, post-emergence, 312 h; for pest or weed control at 15.625 g/ha: 15.625 g ai/ha, evaluated after 13 days (100=total damage to plant; 0=no damage to plant), read-out: Barnyardgrass damage rating; for pest or weed control at 62.5 g/ha: 62.5 g ai/ha, read-out: Barnyardgrass damage rating (100=total damage to plant; 0=no damage to plant); for pest or weed control at 62.5 g/ha / pest or weed control at 250 g/ha: evaluated after 13 days; for pest or weed control at 250 g/ha: 250 g ai/ha, read-out: damage to plant, Barnyardgrass (100=total damage to plant; 0=no damage to plant)
Summary of the method: (§2)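 Values are percent visual injury at 13 days after treatment (0 none, 100 total). Treatment was a post-emergence spray at 15.625, 62.5 or 250 g/ha on 8-day-old pot plants kept at 24/16 °C.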

[8] = tested on: corn (Zea mays); assay: Test G Post-Emergence Protocol; settings: Zea mays, post-emergence, 312 h; for plant injury at 15.625 g/ha: 15.625 g ai/ha, evaluated after 13 days (100=total damage to plant; 0=no damage to plant), read-out: Corn damage rating; for plant injury at 62.5 g/ha: 62.5 g ai/ha, read-out: Corn damage rating (100=total damage to plant; 0=no damage to plant); for plant injury at 62.5 g/ha / plant injury at 250 g/ha: evaluated after 13 days; for plant injury at 250 g/ha: 250 g ai/ha, read-out: damage to plant, Corn (100=total damage to plant; 0=no damage to plant)
Summary of the method: as §2

[9] = tested on: giant foxtail (Setaria faberi); assay: Test G Post-Emergence Protocol; settings: Setaria faberi, post-emergence, 312 h; for pest or weed control at 15.625 g/ha: 15.625 g ai/ha, evaluated after 13 days (100=total damage to plant; 0=no damage to plant), read-out: Foxtail, Giant damage rating; for pest or weed control at 62.5 g/ha: 62.5 g ai/ha, read-out: Foxtail, Giant damage rating (100=total damage to plant; 0=no damage to plant); for pest or weed control at 62.5 g/ha / pest or weed control at 250 g/ha: evaluated after 13 days; for pest or weed control at 250 g/ha: 250 g ai/ha, read-out: damage to plant, Foxtail, Giant (100=total damage to plant; 0=no damage to plant)
Summary of the method: as §2

[10] = tested on: ivy-leaved morning glory (Ipomoea hederacea); assay: Test G Post-Emergence Protocol; settings: Ipomoea, post-emergence, 312 h; for pest or weed control at 15.625 g/ha: 15.625 g ai/ha, evaluated after 13 days (100=total damage to plant; 0=no damage to plant), read-out: Morningglory, Ivy-leaved damage rating; for pest or weed control at 62.5 g/ha: 62.5 g ai/ha, read-out: Morningglory, Ivy-leaved damage rating (100=total damage to plant; 0=no damage to plant); for pest or weed control at 62.5 g/ha / pest or weed control at 250 g/ha: evaluated after 13 days; for pest or weed control at 250 g/ha: 250 g ai/ha, read-out: damage to plant, Morningglory, Ivy-leaved (100=total damage to plant; 0=no damage to plant)
Summary of the method: as §2

[11] = tested on: redroot pigweed (Amaranthus retroflexus); assay: Test G Post-Emergence Protocol; settings: Amaranthus retroflexus, post-emergence, 312 h; for pest or weed control at 15.625 g/ha: 15.625 g ai/ha, evaluated after 13 days (100=total damage to plant; 0=no damage to plant), read-out: Pigweed, Redroot damage rating; for pest or weed control at 62.5 g/ha: 62.5 g ai/ha, read-out: Pigweed, Redroot damage rating (100=total damage to plant; 0=no damage to plant); for pest or weed control at 62.5 g/ha / pest or weed control at 250 g/ha: evaluated after 13 days; for pest or weed control at 250 g/ha: 250 g ai/ha, read-out: damage to plant, Pigweed, Redroot (100=total damage to plant; 0=no damage to plant)
Summary of the method: as §2

[12] = tested on: velvetleaf (Abutilon theophrasti); assay: Test G Post-Emergence Protocol; settings: Abutilon theophrasti, post-emergence, 312 h; for pest or weed control at 15.625 g/ha: 15.625 g ai/ha, evaluated after 13 days (100=total damage to plant; 0=no damage to plant), read-out: Velvetleaf damage rating; for pest or weed control at 62.5 g/ha: 62.5 g ai/ha, read-out: Velvetleaf damage rating (100=total damage to plant; 0=no damage to plant); for pest or weed control at 62.5 g/ha / pest or weed control at 250 g/ha: evaluated after 13 days; for pest or weed control at 250 g/ha: 250 g ai/ha, read-out: damage to plant, Velvetleaf (100=total damage to plant; 0=no damage to plant)
Summary of the method: as §2

Row | SMILES | pest or weed control at 15.625 g/ha [1] [%] | pest or weed control at 62.5 g/ha [1] [%] | pest or weed control at 250 g/ha [1] [%] | plant injury at 15.625 g/ha [2] [%] | plant injury at 62.5 g/ha [2] [%] | plant injury at 250 g/ha [2] [%] | pest or weed control at 15.625 g/ha [3] [%] | pest or weed control at 62.5 g/ha [3] [%] | pest or weed control at 250 g/ha [3] [%] | pest or weed control at 15.625 g/ha [4] [%] | pest or weed control at 62.5 g/ha [4] [%] | pest or weed control at 250 g/ha [4] [%] | pest or weed control at 15.625 g/ha [5] [%] | pest or weed control at 62.5 g/ha [5] [%] | pest or weed control at 250 g/ha [5] [%] | pest or weed control at 15.625 g/ha [6] [%] | pest or weed control at 62.5 g/ha [6] [%] | pest or weed control at 250 g/ha [6] [%] | pest or weed control at 15.625 g/ha [7] [%] | pest or weed control at 62.5 g/ha [7] [%] | also measured
1 | Cc1c(Cl)cccc1NC(=O)[C@@H]1C(=O)N(C)C[C@H]1c1ccc(C(F)(F)F)cc1 (racemic) [Compound 1607] | 0 | 40 | 80 | 0 | 0 | 10 | 50 | 80 | 80 | 0 | 10 | 20 | 0 | 20 | 30 | 0 | 0 | 20 | 0 | 50 | pest or weed control at 250 g/ha [7]: 60%; plant injury at 15.625 g/ha [8]: 0%; plant injury at 62.5 g/ha [8]: 0%; plant injury at 250 g/ha [8]: 60%; pest or weed control at 15.625 g/ha [9]: 50%; pest or weed control at 62.5 g/ha [9]: 80%; pest or weed control at 250 g/ha [9]: 80%; pest or weed control at 15.625 g/ha [10]: 20%; pest or weed control at 62.5 g/ha [10]: 30%; pest or weed control at 250 g/ha [10]: 60%; pest or weed control at 15.625 g/ha [11]: 0%; pest or weed control at 62.5 g/ha [11]: 40%; pest or weed control at 250 g/ha [11]: 70%; pest or weed control at 15.625 g/ha [12]: 10%; pest or weed control at 62.5 g/ha [12]: 30%; pest or weed control at 250 g/ha [12]: 40%
2 | Cc1nccc(NC(=O)[C@@H]2C(=O)N(C)C[C@H]2c2ccc(C(F)(F)F)cc2)n1 (racemic) [Compound 1641] | 0 | 0 | 0 | 0 | 0 | 0 | 0 | 0 | 0 | 0 | 0 | 0 | 0 | 0 | 0 | 0 | 0 | 0 | 0 | 0 | pest or weed control at 250 g/ha [7]: 0%; plant injury at 15.625 g/ha [8]: 0%; plant injury at 62.5 g/ha [8]: 0%; plant injury at 250 g/ha [8]: 0%; pest or weed control at 15.625 g/ha [9]: 0%; pest or weed control at 62.5 g/ha [9]: 0%; pest or weed control at 250 g/ha [9]: 0%; pest or weed control at 15.625 g/ha [10]: 0%; pest or weed control at 62.5 g/ha [10]: 0%; pest or weed control at 250 g/ha [10]: 0%; pest or weed control at 15.625 g/ha [11]: 0%; pest or weed control at 62.5 g/ha [11]: 0%; pest or weed control at 250 g/ha [11]: 0%; pest or weed control at 15.625 g/ha [12]: 0%; pest or weed control at 62.5 g/ha [12]: 0%; pest or weed control at 250 g/ha [12]: 0%
3 | Cc1cnc(NC(=O)[C@@H]2C(=O)N(C)C[C@H]2c2ccc(C(F)(F)F)cc2)cn1 (racemic) [Compound 1648] | 0 | 0 | 0 | 0 | 0 | 0 | 0 | 0 | 0 | 0 | 0 | 0 | 0 | 0 | 0 | 0 | 0 | 0 | 0 | 0 | pest or weed control at 250 g/ha [7]: 0%; plant injury at 15.625 g/ha [8]: 0%; plant injury at 62.5 g/ha [8]: 0%; plant injury at 250 g/ha [8]: 0%; pest or weed control at 15.625 g/ha [9]: 0%; pest or weed control at 62.5 g/ha [9]: 0%; pest or weed control at 250 g/ha [9]: 0%; pest or weed control at 15.625 g/ha [10]: 0%; pest or weed control at 62.5 g/ha [10]: 0%; pest or weed control at 250 g/ha [10]: 0%; pest or weed control at 15.625 g/ha [11]: 0%; pest or weed control at 62.5 g/ha [11]: 0%; pest or weed control at 250 g/ha [11]: 0%; pest or weed control at 15.625 g/ha [12]: 0%; pest or weed control at 62.5 g/ha [12]: 0%; pest or weed control at 250 g/ha [12]: 0%
